Data taken from US12728126B2, “Compounds for inhibiting LY6K and methods of using same” (The Henry M. Jackson Foundation for the Advancement of …, priority 2020, dated 2026).

Assays:
[1] = tested on: IFNγ/Stat1 signaling; experiment: Western blot of IFNγ induced phosphorylation of Stat1; type: cell-based; conditions: serum starved, IFN γ (100 ng/mL), 2 μM, 30 minutes
Experimental: (§1) Cells were serum starved overnight and then treated with TGF 13 (10 ng/mL) or IFN γ (100 ng/mL) in the presence of 2 μM NSC243928 or NSC11150 for 30 minutes followed by protein analysis using western blot. […] NSC243928 inhibited the TGFβ1 induced phosphorylation of Smad2/3; NSC11150 had no effect on TGFβ1/Smad2/3 signaling. NSC11150 inhibited IFNγ induced phosphorylation of Stat1; NSC243928 had no effect on IFNγ/Stat1 signaling.

[2] = tested on: 4T1 mouse mammary tumor cells; experiment: 4T1 syngeneic mammary tumor model, tumor growth in vivo; parameters: species or system Balb/c mice; conditions: 4T1 model
Experimental: A syngeneic mammary tumor model is used to show the effect of Ly6K small molecule inhibitors on tumor growth in vivo. 4T1 mouse model is an orthotopic allograft model (also called the spontaneous tumor metastasis model). In the 4T1 mouse model, 4T1 mouse mammary tumor cells were injected into the second mammary gland of syngenetic Balb/c mice, and the spontaneous metastasis to the lung were analyzed with a colonogenic assay. 4T1 mice bearing 50-70 mm^3 tumors were treated with NSC243928 or NSC11150 every second day at a dosage of 5 mg/kg in saline. Each group had 10 mice. Tumor measurements were performed using a Vernier caliper. The tumor volumes were calculated using equation ½*length*(width*width).

[3] = tested on: PD-L1; experiment: PD-L1 protein expression in control cells; type: cell-based; conditions: 2 μM
[4] = tested on: PD-L1; experiment: PD-L1 measured in live cells after IFN γ treatment; type: cell-based; conditions: serum starved, 100 ng/ml IFN γ, 2 μM drug
Experimental: Cells were serum starved and treated with 100 ng/ml IFN γ with 2 μM drugs. PD-L1 was measured in live cells (using a zombie live-dead stain). The graph was plotted from three experiments. A 7.9-fold decrease in the number of cells with high PD-L1 expression was observed.

[5] = tested on: TGFβ1/Smad2/3 signaling; experiment: Western blot of TGFβ1 induced phosphorylation of Smad2/3; type: cell-based; conditions: serum starved, TGFβ1 (10 ng/mL), 2 μM, 30 minutes
Experimental: as §1

[6] = tested on: MDA-MB-231 cells; experiment: Cell-Titer-Blue assay, control vs LY6K knockdown MDA-MB-231 cells; type: cell-based
Experimental: (§2) For cell death assay, cells were plated in a black walled 96-well plate and treated with the indicated concentration of drugs for 24 h. Cell-Titer-Blue reagent was added, and the Cytation 5 microplate reader (BioTek, Winooski, VT, USA) was used to measure fluorescence intensity (excitation 560(10) nm, emission 590(20) nm) according to manufacturer's instructions.
To confirm the effect of NSC243928 in LY6K-expressing cells, it was observed the parental control and sh2 LY6K knockdown in MDA-MB-231 cells, a triple negative breast cancer cell line. These cells were generated as previously described. To test the effect of NSC243928 on cell growth, the cells were seeded into 96-well plates and treated with 2 μM of the compound for 24 h. A CTB assay was then performed according to manufacturer's instructions to determine the cell growth.
as §1

[7] = tested on: Hs-578-T cells, BT-549 cells, and OVCAR-8 cells; experiment: In vitro cell growth inhibition in other cancer cell types (FIG. 2); type: cell-based
Experimental: as §2
Cell culture and viability assay are as described herein. […] The inhibitory effect of a crystalline form of Compound I on cell growth in vitro is further illustrated in other cancer cells types, including Hs-578-T cells, BT-549 cells, and OVCAR-8 cells (FIG. 2).

Row | SMILES | IFNγ induced phosphorylation of Stat1 [1] | day following treatment at which inhibition on tumor growth is statistically significant ([2]; 5 mg/kg every second day, P<0.005) | inhibitory effect on tumor growth in vivo ([2]; 5 mg/kg in saline every second day) | PD-L1 protein expression [3] | inhibitory effect on cells with high expression of PD-L1 [4] | decrease in the number of cells with high PD-L1 expression ([4]; live cells, three experiments) | TGFβ1 induced phosphorylation of Smad2/3 [5] | cell death / cell growth in control MDA-MB-231 cells ([6]; 2 μM, 24 h, control cells) | cell death in Ly6K knockdown cells ([6]; 100 μM, Ly6K knockdown cells (data not shown)) | cell death in control cells ([6]; 100 μM, control cells (data not shown)) | inhibitory effect on cell growth at different concentrations (comparison) ([7]; crystalline form compared, different concentrations) | IC50 ([7]; range over the cell types of FIG. 2)
1 | Oc1ccc(Cc2ccc(Cl)cc2)c(O)c1 [Compound II, 4-(4-chlorobenzyl)benzene-1,3-diol] | inhibited | 11 days | significant inhibitory effects | inhibition of PD-L1 expression | showed inhibitory effect | 7.9 fold | had no effect | did not show significant effect on cell death | induced cell death | induced cell death |  | 
2 | CCS(=O)(=O)Nc1ccc(Nc2c3ccccc3nc3ccccc23)c(OC)c1 [crystalline form of Compound I, N-(4-(acridin-9-ylamino)-3-methoxyphenyl)ethanesulfonamide] |  |  |  |  |  |  |  |  |  |  | same or better inhibitory effect | 4.17 to 7.65 µM
